Results as given in US12297186B2, “Benzylamide derivatives as inhibitors of transforming growth factor-beta receptor I/ALK5” (AGOMAB SPAIN, S.L.U., priority 2019, dated 2025).
Like-named read-outs stand apart in the source and are kept apart here.

Key:
heart valves = conditions: rats, all doses tested; cited from earlier work
[1] = rats; cited from earlier work
[2] = Plasma pharmacokinetic assay, single oral administration; format: in vivo, male Sprague Dawley rats; conditions: rat, P.O., 5 mg/kg
Procedure: Plasma Pharmacokinetic Assay
The objective of this study was to investigate the plasma pharmacokinetics of some compounds of the present invention in male Sprague Dawley rats following a single oral administration. Three rats per compound were used in this study. Animals were administered with suspension formulation of each compound in 0.5% Tween-80 and 99.5% NaCMC (0.5% w/v in RO Water) by oral route at 5 mg/kg. The blood samples were collected from set of three rats at each time point in labelled micro centrifuge tube containing K2EDTA solution as anticoagulant at 0.25, 0.5, 1, 2, 4, 6, 8, 12 and 24 hr (p.o.). Plasma samples were separated by centrifugation of whole blood and stored below −70±10° C. until bioanalysis. All samples were processed for analysis by protein precipitation using acetonitrile and analysed with fit-for-purpose LC-MS/MS method (LLOQ=1.01 ng/mL). Pharmacokinetic parameters were calculated using the non-compartmental analysis tool of Phoenix WinNonlin® (Version 7.0).

TGF-beta kinase (ALK-5) = TGF-beta kinase (ALK-5) (Homo sapiens (Human), UniProt P36897); test: Determination of the intracellular TGF-beta kinase activity (ALK-5), p-SMAD3 AlphaLISA in A549 cells; format: cell-based; conditions: A549 cell line, TGF-β2 activated, p-SMAD3; read-out: IC50 range
Chain of TGF-beta kinase (ALK-5) (P36897 34-503): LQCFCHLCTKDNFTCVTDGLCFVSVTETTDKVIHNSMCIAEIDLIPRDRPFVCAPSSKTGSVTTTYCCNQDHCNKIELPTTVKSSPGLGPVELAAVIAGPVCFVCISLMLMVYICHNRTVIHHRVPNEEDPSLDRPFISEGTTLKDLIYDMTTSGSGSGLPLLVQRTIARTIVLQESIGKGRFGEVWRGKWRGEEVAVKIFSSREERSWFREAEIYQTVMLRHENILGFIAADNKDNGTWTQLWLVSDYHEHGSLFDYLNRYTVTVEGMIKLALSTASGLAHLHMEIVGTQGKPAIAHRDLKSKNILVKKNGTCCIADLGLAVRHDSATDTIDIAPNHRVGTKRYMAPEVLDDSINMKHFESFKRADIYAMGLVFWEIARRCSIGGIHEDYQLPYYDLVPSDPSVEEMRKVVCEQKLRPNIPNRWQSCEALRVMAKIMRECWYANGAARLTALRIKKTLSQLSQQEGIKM
Procedure: Determination of the Intracellular TGF-beta Kinase Activity (ALK-5)
The experiments were carried out in A549 cell line. 30000 cells were seeded in 200 μl of culture medium (Sigma D6046) supplemented with L-Glutamine (Sigma G7513), Penicillin/Streptomycin (Invitrogen 11058) and FBS (Sigma F9665) on a 96 wells microplate (Becton Dickinson 353072). After 16 hours medium waschanged to serum free medium.

[3] = Identification study of metabolite; format: in vitro ADME
Excerpt: In an identification study of metabolite was identified Compound A. Said compound is 2-(3-(6-methylpyridin-2-yl)-4-(quinolin-4-yl)-1H-pyrazol-1-yl)acetic acid and has the following formula: […]
Compound A was identified as the major metabolite of examples 9, 15, 20, 22, 24 and 26, among others.

Human TGFβR-1 kinase = Human TGFβR-1 kinase (Homo sapiens (Human), UniProt P36897); test: In vitro enzyme assay: inhibition of TGFβR-1 kinase activity (ADP-Glo); format: biochemical; conditions: TGFβR-1 kinase, 50 μM ATP; read-out: IC50 range
Chain of Human TGFβR-1 kinase (P36897 34-503): as above
Procedure: In Vitro Enzyme Assay: Inhibition of TGFβR-1Kinase Activity
Human TGFβl R-1 inhibition experiments were carried out in a white 384-microplate low flange (Corning 3572) with ADP-Glo kinase Assay Kit (Promega V9101) and TGβR-1 Kinase Enzyme System (Promega V4092). […] The reaction mixture was incubated in gentle shaking for 120 min at RT, after incubation of 10 μL of ADP-Glo Reagent was added and incubated in gentle shaking for 40 min at RT. 20 μL of Kinase Detection Reagent was added and plate was incubated in gentle shaking for 30 min at RT. Luminiscence (1000 ms) was measured in Perkin Elmer EnSpire Multimode plate reader.

[4] = Metabolic stability assay, human microsomes; format: in vitro ADME; conditions: for microsomal CLint: human recombinant microsomes (Tebu-Xenotech)
Procedure: (§1) Metabolic Stability Assay
(§2) Human and rat recombinant microsomes from Tebu-Xenotech were employed in the assay. They content 0.5 mg/ml of protein. The following quantities were added to each well of a 96-well microplate.
(§3) Plates were incubated at 37° C. and 75 μL samples were taken at 0, 10, 20, 40 and 60 minutes. Samples were transferred to a microplate and 75 μl Acetonitrile were added for inactivating the microsomes, and 30 μl of H2O for improving the chromatographic conditions and kept at 4° C. When all the samples were taken the plate was centrifuged at […] for 30 min at 15° C. Supernatant was taken and injected in the UPLC-MS/MS.
(§4) Stationary phase: Reverse phase Acquity UPLC® BEH C18 1.7 μm (2.1 mm×50 mm) (Waters). Mobile phase: A: 0.1% formic; B:acetonitrile+0.1% formic acid. Flow: 0.6 ml/min. The chromatographic equipment employed was an UPLC QSM Waters Acquity. Compound concentrations were calculated from the UV peak areas. The response was linear in the range between 10 ng/ml and 0.3125 ng/ml. Metabolic stability was calculated from the logarithm of the remaining compound at each of the times evaluated.
(§5) The data will be fitted to the one phase exponential decay equation using GraphPad Prism® software. The half-life (t1/2) generated by the software will be reported. Intrinsic clearance will be calculated using the formula where, k=decay rate constant (min^−1).

[5] = Metabolic stability assay, rat microsomes; format: in vitro ADME; conditions: for microsomal CLint: rat recombinant microsomes (Tebu-Xenotech), pH 7.4
Procedure: as §1, §2, §3, §4, §5

MINK = MINK (Homo sapiens (Human), UniProt Q8N4C8); conditions: cited from earlier work
Chain of MINK (Q8N4C8 whole entry): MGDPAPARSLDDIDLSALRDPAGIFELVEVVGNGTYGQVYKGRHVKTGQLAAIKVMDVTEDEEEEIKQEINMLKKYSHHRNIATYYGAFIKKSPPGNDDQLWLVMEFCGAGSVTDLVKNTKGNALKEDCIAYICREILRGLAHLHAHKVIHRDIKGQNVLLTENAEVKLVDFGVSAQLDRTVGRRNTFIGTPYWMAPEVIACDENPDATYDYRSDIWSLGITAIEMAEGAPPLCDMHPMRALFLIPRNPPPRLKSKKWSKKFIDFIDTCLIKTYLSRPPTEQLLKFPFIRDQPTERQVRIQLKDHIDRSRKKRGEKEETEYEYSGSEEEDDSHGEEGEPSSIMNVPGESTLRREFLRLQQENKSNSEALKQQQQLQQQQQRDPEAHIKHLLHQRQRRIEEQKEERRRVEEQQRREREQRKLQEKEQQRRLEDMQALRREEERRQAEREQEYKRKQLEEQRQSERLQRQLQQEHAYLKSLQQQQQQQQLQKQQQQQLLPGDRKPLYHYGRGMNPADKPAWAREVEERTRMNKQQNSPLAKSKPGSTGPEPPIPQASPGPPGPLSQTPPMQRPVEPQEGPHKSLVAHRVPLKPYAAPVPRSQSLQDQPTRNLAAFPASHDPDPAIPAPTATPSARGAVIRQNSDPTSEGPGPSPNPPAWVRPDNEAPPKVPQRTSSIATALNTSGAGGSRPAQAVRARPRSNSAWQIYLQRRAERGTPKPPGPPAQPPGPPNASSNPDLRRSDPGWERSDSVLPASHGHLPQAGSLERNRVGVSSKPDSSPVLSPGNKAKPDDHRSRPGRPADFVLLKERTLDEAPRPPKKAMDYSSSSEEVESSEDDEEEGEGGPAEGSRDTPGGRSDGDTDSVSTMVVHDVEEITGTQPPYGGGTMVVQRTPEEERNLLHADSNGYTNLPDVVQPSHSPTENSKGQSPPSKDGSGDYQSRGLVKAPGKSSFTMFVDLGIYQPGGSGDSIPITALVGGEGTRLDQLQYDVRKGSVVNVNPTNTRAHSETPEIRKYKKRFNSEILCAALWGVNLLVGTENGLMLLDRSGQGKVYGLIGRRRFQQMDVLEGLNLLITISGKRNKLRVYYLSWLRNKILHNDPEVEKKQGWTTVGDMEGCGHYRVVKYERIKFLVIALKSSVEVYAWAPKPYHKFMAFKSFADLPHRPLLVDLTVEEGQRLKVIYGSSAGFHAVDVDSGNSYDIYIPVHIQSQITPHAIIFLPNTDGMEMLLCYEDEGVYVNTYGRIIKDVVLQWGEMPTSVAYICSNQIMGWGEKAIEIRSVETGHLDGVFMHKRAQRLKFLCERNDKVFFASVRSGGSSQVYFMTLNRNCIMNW

[6] = in vivo; cited from earlier work
myelofibrosis (MF) = conditions: mouse models; cited from earlier work
ACVR2B = ACVR2B (Homo sapiens (Human), UniProt Q13705); conditions: cited from earlier work
Chain of ACVR2B (Q13705 19-512, species assumed): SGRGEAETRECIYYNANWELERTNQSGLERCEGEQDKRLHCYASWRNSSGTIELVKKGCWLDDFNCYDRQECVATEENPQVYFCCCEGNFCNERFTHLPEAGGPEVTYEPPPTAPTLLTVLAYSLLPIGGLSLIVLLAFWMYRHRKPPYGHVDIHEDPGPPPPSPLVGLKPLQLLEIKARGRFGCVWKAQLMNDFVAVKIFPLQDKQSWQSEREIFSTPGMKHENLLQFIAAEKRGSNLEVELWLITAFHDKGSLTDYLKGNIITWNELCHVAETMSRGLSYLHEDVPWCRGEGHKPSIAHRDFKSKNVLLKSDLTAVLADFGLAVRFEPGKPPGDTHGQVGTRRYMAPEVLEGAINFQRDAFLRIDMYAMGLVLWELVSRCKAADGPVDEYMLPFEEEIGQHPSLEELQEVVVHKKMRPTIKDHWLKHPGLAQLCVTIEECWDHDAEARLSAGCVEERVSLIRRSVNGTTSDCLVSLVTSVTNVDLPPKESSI

TGFβRII = TGFβRII (Homo sapiens (Human), UniProt P37173); conditions: cited from earlier work
Chain of TGFβRII (P37173 23-567): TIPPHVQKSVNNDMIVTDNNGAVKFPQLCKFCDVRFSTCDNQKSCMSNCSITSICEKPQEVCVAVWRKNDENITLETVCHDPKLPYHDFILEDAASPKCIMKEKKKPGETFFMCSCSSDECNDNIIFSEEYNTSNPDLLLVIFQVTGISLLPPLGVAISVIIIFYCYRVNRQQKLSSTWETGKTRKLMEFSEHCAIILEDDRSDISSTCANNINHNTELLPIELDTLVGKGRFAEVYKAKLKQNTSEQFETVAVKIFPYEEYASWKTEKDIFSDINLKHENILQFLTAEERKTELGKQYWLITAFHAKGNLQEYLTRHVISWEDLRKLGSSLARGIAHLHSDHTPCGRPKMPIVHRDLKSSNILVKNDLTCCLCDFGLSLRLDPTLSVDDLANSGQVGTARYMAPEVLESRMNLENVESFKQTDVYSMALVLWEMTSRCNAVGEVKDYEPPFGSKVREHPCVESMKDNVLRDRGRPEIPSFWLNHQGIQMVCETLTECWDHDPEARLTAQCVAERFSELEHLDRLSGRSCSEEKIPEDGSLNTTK

ALK4 = ALK4 (Homo sapiens (Human), UniProt P36896); conditions: cited from earlier work
Chain of ALK4 (P36896 24-505, species assumed): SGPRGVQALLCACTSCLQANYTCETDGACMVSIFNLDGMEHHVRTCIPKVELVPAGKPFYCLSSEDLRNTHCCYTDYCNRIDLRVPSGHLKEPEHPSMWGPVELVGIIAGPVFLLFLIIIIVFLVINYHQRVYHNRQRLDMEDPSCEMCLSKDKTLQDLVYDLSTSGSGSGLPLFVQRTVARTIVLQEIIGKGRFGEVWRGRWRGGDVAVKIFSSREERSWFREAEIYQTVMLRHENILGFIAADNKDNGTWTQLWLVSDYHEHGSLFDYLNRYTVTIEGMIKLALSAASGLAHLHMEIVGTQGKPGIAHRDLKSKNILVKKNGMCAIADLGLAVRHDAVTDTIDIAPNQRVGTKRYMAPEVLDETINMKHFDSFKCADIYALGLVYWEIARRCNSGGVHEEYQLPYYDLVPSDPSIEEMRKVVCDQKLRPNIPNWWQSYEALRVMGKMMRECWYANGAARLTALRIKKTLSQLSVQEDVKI

ALK6 = ALK6 (Homo sapiens (Human), UniProt O00238); conditions: cited from earlier work
Chain of ALK6 (O00238 14-502): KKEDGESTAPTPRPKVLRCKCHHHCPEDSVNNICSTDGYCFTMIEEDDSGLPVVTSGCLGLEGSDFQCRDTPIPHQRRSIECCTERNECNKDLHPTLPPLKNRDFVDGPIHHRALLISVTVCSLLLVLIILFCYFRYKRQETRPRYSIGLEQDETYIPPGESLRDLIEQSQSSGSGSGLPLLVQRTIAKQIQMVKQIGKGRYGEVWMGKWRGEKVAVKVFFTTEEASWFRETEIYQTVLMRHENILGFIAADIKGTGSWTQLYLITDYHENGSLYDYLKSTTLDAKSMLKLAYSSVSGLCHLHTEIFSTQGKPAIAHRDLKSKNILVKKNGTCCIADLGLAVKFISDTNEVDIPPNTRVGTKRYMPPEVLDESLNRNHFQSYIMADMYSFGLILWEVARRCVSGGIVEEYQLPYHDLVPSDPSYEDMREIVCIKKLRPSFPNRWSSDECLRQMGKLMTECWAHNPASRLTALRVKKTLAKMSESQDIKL

[7] = dogs; cited from earlier work
[8] = rats; cited from earlier work; remark: listed apart in the source
human pancreatic cancer = conditions: systemic administration; cited from earlier work
[9] = male, Sprague-Dawley, po, plasma

Row | IC50 (TGF-beta kinase (ALK-5)) | Major metabolite identified [3] | IC50 (Human TGFβR-1 kinase) | % remanent (sampling time 60 min) [4] | microsomal CLint [4] | % remanent (sampling time 60 min) [5] | microsomal CLint [5] | Structure (SMILES) | further results
1 |  |  |  |  |  |  |  | c1ccc(-c2nc3c(c(-n4ccc5cnccc54)n2)CCC3)nc1 [AZ12601011] | Histopathology finding in heart (heart valves): heart valve lesions
2 |  |  |  |  |  |  |  | Cc1ccc(Oc2ccnc(Nc3ccc(S(N)(=O)=O)cc3)c2)c(C)n1 [AZ12799734] | Histopathology finding in heart (heart valves): heart valve lesions
3 |  |  |  |  |  |  |  | Cc1cccc(-c2[nH]c(CNc3ccccc3F)nc2-c2ccc3ncnn3c2)n1 [EW-7197] | oral bioavailability [1]: 51%
4 | < 100 nM | Compound A | < 100 nM | 0.03% | 378 µL/min/mg | 0.14% | 644 µL/min/mg | Cc1cccc(-c2nn(CC(=O)NCc3ccccc3Cl)cc2-c2ccnc3ccccc23)n1 [Example 22, N-(2-chlorobenzyl)-2-(3-(6-methylpyridin-2-yl)-4-(quinolin-4-yl)-1H-pyrazol-1-yl)acetamide] | AUC(0-inf) [2, 9]: 15.3 ng·h/mL; AUC(0-t) [2, 9]: 13.7 ng·h/mL; Cmax [2, 9]: 20 ng/mL; Tmax [2, 9]: 19.8 min
5 | < 100 nM | Compound A | < 100 nM | 0.05% | 307 µL/min/mg | 0.01% | 360 µL/min/mg | Cc1cccc(-c2nn(CC(=O)NCc3c(F)cccc3F)cc2-c2ccnc3ccccc23)n1 [Example 24, N-(2,6-difluorobenzyl)-2-(3-(6-methylpyridin-2-yl)-4-(quinolin-4-yl)-1H-pyrazol-1-yl)acetamide] | Plasma concentrations quantifiable (PK parameters not calculable) ([2]; LLOQ 1.01 ng/mL): Concentrations were quantifiable only at 0.25
6 | 100 to 500 nM | Compound A | < 100 nM | 0.05% | 622 µL/min/mg | 0.08% | 826 µL/min/mg | Cc1cccc(-c2nn(CC(=O)NCc3c(C)cccc3C)cc2-c2ccnc3ccccc23)n1 [Example 26, N-(2,6-dimethylbenzyl)-2-(3-(6-methylpyridin-2-yl)-4-(quinolin-4-yl)-1H-pyrazol-1-yl)acetamide] | 
7 |  |  |  |  |  |  |  | Cc1cccc(-c2nn3c(c2-c2ccnc4ccc(C(N)=O)cc24)CCC3)n1 [Galunisertib] | IC50 MINK (MINK): submicromolar; oral bioavailability [6]: orally bioavailable; Effect on myelofibrosis (myelofibrosis (MF)): significantly improved MF; IC50 ACVR2B (ACVR2B): submicromolar; IC50 TGFβRII (TGFβRII): submicromolar; IC50 (ALK4): 770 nM; IC50 ALK6 (ALK6): submicromolar; Major target organs for toxicity [7]: the heart and great vessels; Major target organs for toxicity [8]: the heart and great vessels
8 |  |  |  |  |  |  |  | c1ccc(-c2nn3c(c2-c2ccnc4cc(OCCN5CCOCC5)ccc24)CCC3)nc1 [LY2109761] | Effect on metastasis (human pancreatic cancer): suppresses liver and other abdominal site metastasis
